Experimental data from EPA's ToxRefDB 2.

Columns and labels:
rat [1] = details: Combined chronic toxicity/carcinogenicity, sprague dawley, Oral, Feed, dose end: 104 week
rabbit [2] = details: Prenatal developmental toxicity study, new zealand white, Oral, Gavage/Intubation, dose end: 19 GD, group: maternal
rabbit [3] = details: Prenatal developmental toxicity study, New Zealand White, Oral, Gavage/Intubation, dose end: 19 GD, group: maternal
rat [4] = details: Subchronic oral toxicity in rodents, sprague dawley, Gavage/Intubation, dose end: 90 day, group: systemic
rat [5] = details: Subchronic inhalation toxicity, sprague dawley, Whole-Body, dose end: 13 week
rabbit [6] = details: Prenatal developmental toxicity study, new zealand white, Oral, Gavage/Intubation, dose end: 19 GD, group: maternal; remark: listed apart in the source
rat [7] = details: Subchronic dermal toxicity, sprague dawley, Topical, dose end: 91 day
rat [8] = details: Neurotoxicity screening battery; sprague dawley; Oral; Feed; dose end: 13 week; group: cannot be grouped; cholinesterase / cholinesterase / cholinesterase / plasma cholinesterase (che) + systemic / in life observation / food consumption / food …
rat [9] = details: Prenatal developmental toxicity study, sprague dawley, Oral, Gavage/Intubation, dose end: 15 GD
rat [10] = details: Prenatal developmental toxicity study, sprague dawley, Oral, Gavage/Intubation, dose end: 15 GD; remark: listed apart in the source
mouse = details: Carcinogenicity, cd1, Oral, Feed, dose end: 78 week, group: systemic
rat [11] = details: Prenatal developmental toxicity study, sprague dawley, Oral, Gavage/Intubation, dose end: 15 GD; remark: listed apart in the source
rat [12] = details: Subchronic oral toxicity in rodents, sprague dawley, Gavage/Intubation, dose end: 90 day
[13] = group: cholinesterase, cholinesterase / cholinesterase / cholinesterase / erythrocyte cholinesterase (che) + cholinesterase / cholinesterase / cholinesterase / …
[14] = group: cholinesterase, cholinesterase / cholinesterase / cholinesterase / plasma cholinesterase (che)
[15] = group: systemic, systemic / in life observation / body weight / body weight gain
[16] = group: systemic, systemic / in life observation / body weight / body weight gain + systemic / clinical chemistry / cholesterol / cholesterol + systemic / …
[17] = systemic / in life observation / clinical signs / defecation + systemic / in life observation / food consumption / food consumption + …
[18] = systemic / in life observation / body weight / body weight gain + systemic / in life observation / food consumption / food consumption + …
[19] = group: cholinesterase, cholinesterase / cholinesterase / cholinesterase / brain cholinesterase (che)
[20] = group: cholinesterase, cholinesterase / cholinesterase / cholinesterase / brain cholinesterase (che) + cholinesterase / cholinesterase / cholinesterase / …
[21] = group: systemic, systemic / clinical chemistry / glucose / glucose + systemic / clinical chemistry / alanine aminotransferase (alt/sgpt) / alanine …
[22] = reproductive / reproductive performance / resorptions / resorptions + systemic / in life observation / body weight / body weight gain + …
[23] = group: cholinesterase, cholinesterase / cholinesterase / cholinesterase / plasma cholinesterase (che) + cholinesterase / cholinesterase / cholinesterase / …
[24] = group: systemic, systemic / pathology microscopic / skin / hyperkeratosis + systemic / clinical chemistry / calcium / calcium + systemic / clinical chemistry…
[25] = group: systemic, systemic / pathology microscopic / skin / hyperkeratosis + systemic / clinical chemistry / glucose / glucose + systemic / in life …
[26] = group: developmental, developmental / developmental malformation / bone / unossified + systemic / in life observation / body weight / fetal weight
[27] = group: maternal, systemic / in life observation / body weight / body weight gain + systemic / in life observation / food consumption / food consumption + …
[28] = group: developmental, developmental / developmental malformation / bone / incomplete ossification + developmental / developmental malformation / bone / wavy
[29] = group: maternal, systemic / in life observation / body weight / body weight gain
[30] = systemic / pathology microscopic / thyroid gland / vacuolization + systemic / pathology microscopic / thyroid gland / hypertrophy
[31] = systemic / pathology microscopic / thyroid gland / vacuolization + systemic / pathology microscopic / thyroid gland / hypertrophy + systemic…
[32] = group: developmental, developmental / developmental landmark / [other] / [other]
[33] = group: maternal, systemic / in life observation / body weight / body weight gain + systemic / in life observation / clinical signs / salivation + systemic / …
[34] = group: cholinesterase, cholinesterase / cholinesterase / cholinesterase / cholinesterase (che)
[35] = group: systemic, systemic / in life observation / clinical signs / salivation + systemic / pathology gross / liver / misshapen
[36] = group: systemic, systemic / in life observation / clinical signs / salivation + systemic / pathology gross / liver / misshapen + systemic / pathology …

CCCCNC(=O)OCC#CI [3-Iodo-2-propynyl-N-butylcarbamate]
≥ 200 mg/kg/day: NOAEL (rat [12]; [34])
500 mg/kg/day: LEL (rat [7]; [23])
< 19.8 mg/kg/day: NOAEL (mouse; [30]) | NEL (mouse; [31])
25 mg/kg/day: NEL (rat [9]; [27]) | NOAEL (rat [9]; [27]) | NEL (rat [11]; [33]) | NOAEL (rat [11]; [33]) | NEL (rat [12]; [34]) | LOAEL (rat [12]; [35]) | LEL (rat [12]; [36])
> 0.54 ppm: LOAEL (rat [5]; [21])
50 mg/kg/day: LOAEL (rat [4]; systemic / organ weight / liver / relative to body weight) | LEL (rat [4]; systemic / organ weight / liver / relative to body weight + systemic / in life observation / clinical signs / post-dosing rooting in bedding…) | LOAEL (rabbit [6]; systemic / in life observation / body weight / body weight gain + systemic / in life observation / clinical signs / [other] + systemic / in …) | NEL (rat [7]; [24]) | NOAEL (rat [7]; [24]) | LEL (rat [8]) | LOAEL (rat [8]) | NEL (rat [10]; [28]) | NOAEL (rat [10]; [28]) | NEL (rat [10]; [29]) | NOAEL (rat [10]; [29])
250 mg/kg/day: LEL (rat [9]; [26]) | LOAEL (rat [9]; [26]) | LEL (rat [11]; [32]) | LOAEL (rat [11]; [32])
75 mg/kg/day: NEL (rat [9]; [26]) | NOAEL (rat [9]; [26]) | LOAEL (rat [9]; group: maternal, systemic / in life observation / body weight / body weight gain + systemic / in life observation / food consumption / food consumption) | LEL (rat [9]; [27]) | NEL (rat [11]; [32]) | NOAEL (rat [11]; [32]) | LEL (rat [11]; [33]) | LOAEL (rat [11]; [33]) | LEL (rat [12]; [34])
20 mg/kg/day: LEL (rabbit [2]; [17]) | NOAEL (rabbit [2]; [17]) | LOAEL (rabbit [3]; systemic / in life observation / body weight / body weight gain + systemic / in life observation / food consumption / food consumption) | LEL (rabbit [3]; [18]) | NEL (rat [4]; systemic / in life observation / clinical signs / post-dosing rooting in bedding + systemic / organ weight / liver / relative to body weight…) | NOAEL (rat [4]; systemic / organ weight / liver / relative to body weight + systemic / in life observation / body weight / body weight gain + systemic / in …) | LEL (rabbit [6]; reproductive / reproductive performance / resorptions / resorptions) | NOAEL (rabbit [6]; [22])
20.1 mg/kg/day: LEL (rat [1]; [14]) | LOAEL (rat [1]; [15]) | LEL (rat [1]; [16])
19.8 mg/kg/day: LOAEL (mouse; [30]) | LEL (mouse; [31])
0.11 ppm: LEL (rat [5]; [19]) | LOAEL (rat [5]; [19]) | LEL (rat [5]; group: systemic, systemic / clinical chemistry / glucose / glucose)
125 mg/kg/day: LEL (rat [10]; [28]) | LOAEL (rat [10]; [28]) | LEL (rat [10]; [29]) | LOAEL (rat [10]; [29])
≥ 80.1 mg/kg/day: NOAEL (rat [1]; [13])
< 25 mg/kg/day: NOAEL (rat [12]; [35]) | NEL (rat [12]; [36])
> 200 mg/kg/day: LOAEL (rat [12]; [34])
> 80.1 mg/kg/day: LOAEL (rat [1]; [13])
10 mg/kg/day: NEL (rabbit [2]; [17]) | NEL (rabbit [3]; [18]) | NOAEL (rabbit [3]; [18]) | NEL (rat [8]) | NOAEL (rat [8])
2 mg/kg/day: NEL (rabbit [6]; [22])
200 mg/kg/day: NEL (rat [7]; [14]) | LEL (rat [7]; [25]) | LOAEL (rat [7]; [25])
≥ 500 mg/kg/day: NOAEL (rat [7]; [23])
40 mg/kg/day: LOAEL (rabbit [2]; systemic / in life observation / clinical signs / defecation + systemic / pathology gross / stomach / discolored + reproductive / …)
0.0217 ppm: NEL (rat [5]; [20]) | NOAEL (rat [5]; [20]) | NEL (rat [5]; [21])
> 500 mg/kg/day: LOAEL (rat [7]; [23])
≥ 0.54 ppm: NOAEL (rat [5]; [21])
< 20.1 mg/kg/day: NEL (rat [1]; [14]) | NOAEL (rat [1]; [15]) | NEL (rat [1]; [16])
